Experimental data reported in US12377103B2, “Use of bromodomain-containing protein 9 inhibitors to treat and/or prevent uterine leiomyosarcoma” (The University of Chicago, priority 2022, dated 2025).

What was measured:
macrophages = details: cited from earlier work
ovarian cancer = details: associated with cell cycle arrest, apoptosis induction, metabolic alterations; cited from earlier work
SW48 colon cancer cells = details: cited from earlier work
CECR2 BRD = CECR2 BRD (Homo sapiens, UniProt Q9BXF3); details: within cells; cited from earlier work
endometrial cancer cells = details: cited from earlier work
melanoma = details: by suppressing ECM-mediated oncogenic signaling and inducing apoptosis; cited from earlier work
SK-UT-1 cells [1] = assay: qRT-PCR validation of cell cycle and apoptosis genes; format: cell-based, human; details: iBRD9 treatment
Method: Total RNA was isolated using Trizol reagent (Invitrogen, Carlsbad, CA, USA). The concentration of total RNA was determined using NanoDrop (Thermo Scientific, Waltham, MA, USA). One microgram of total RNA from each sample was reverse transcribed to complementary DNA (cDNA) using the High-Capacity cDNA Transcription Kit (Thermo Scientific, Waltham, MA, USA). Quantitative real-time polymerase chain reaction (qRT-PCR) was performed to determine the messenger RNA (mRNA) expression of several genes listed with their primer sequences in Table 2. The real-time PCR reactions were performed using CFX96 PCR instrument using SYBR Green Supermix (Bio-Rad, Hercules, CA, USA). 18S was used as an internal control. The results are presented as relative gene expression using CFX Maestro™. The assay was performed three times in triplicate.
Quantitative real-time PCR was performed to determine the mRNA expression of genes as described previously. An equal amount of cDNA from each sample was added to the Master mix containing appropriate primer sets and SYBR green supermix (Bio-Rad) in a 20 μL reaction volume. All samples were analyzed in triplicates. Real-time PCR analyses were performed using a Bio-Rad CFX96. Cycling conditions included denaturation at 95° C. for 2 min followed by 40 cycles of 95° C. for 5 s and 60° C. for 30 seconds then 65° C. for 5 seconds. […]

BCL-2 = assay: Western blot of BCL-2 protein levels in SK-UT-1 cells; format: cell-based, human; details: dose-dependent manner, FIG. 4E-4F
Method: Cells were collected and lysed in RIPA lysis buffer with protease and phosphatase inhibitor cocktail (Thermo Scientific, Waltham, MA, USA), the protein was quantified using the Bradford method (Bio-Rad Protein Assay kit). The antigen—antibody complex was detected with Trident Femto Western HRP substrate (Gene-Tex, Irvine, CA, USA). Specific protein bands were visualized using ChemiDoc XRS ♭ molecular imager (Bio-Rad, Hercules, CA, USA).
(§1) Trypan blue exclusion assay was performed in SK-UT-1 and MES-SA cell lines treated for 48 h with TP-472 at dose ranges from 1-25 μM.

MES-SA cells = assay: Proliferation assay (trypan blue exclusion), MES-SA; format: cell-based, human; details: 1-25 μM, 48 h, FIG. 4D
Method: (§2) The leiomyosarcoma (uLMS) cell line (SK-UT1, ATCC® HTB-114TM) (ATCC, Manassas, VA, USA) was cultured and maintained in ATCC-formulated Eagle's Minimum Essential Medium with 10% of fetal bovine serum. In addition, the uterine sarcoma cell line (MES-SA) (ATCC, Manassas, VA, USA) was cultured and maintained in McCoy's 5A medium. The immortalized human leiomyoma cell line (HuLM) and immortalized human uterine smooth muscle (UTSM) cells were a generous gift from Professor Darlene Dixon. The HuLM and UTSM cell lines were cultured and maintained in phenol red-free, Dulbecco's Modified Eagle Medium: Nutrient Mixture F-12. These cell lines, covering the spectrum from normal cell line (UTSM), benign uterine tumor cell line (HuLM), and uterine malignant cell lines (uLMS), were used to better understand the tumor progression linking to the BRD9 dysregulation in uLMS. BRD9 inhibitor (iBRD9) TP-472 was purchased from Tocris (Cat #6000, Minneapolis, MN, USA).
(§3) Cell proliferation was measured using trypan blue exclusion assay; 4 104 cells per well were seeded into 12-well tissue culture plates, treated with the iBRD9 (TP-472) at a dose range from 1-25 μM for 48 h. This assay was performed three times in triplicate.
as §1

SK-UT-1 cells [2] = assay: RNA-sequencing of TP-472 vs control treated SK-UT-1 cells; format: cell-based, human
Method: To determine the mechanism underlying the inhibitory effect of BRD9 inhibition on the uLMS, the SK-UT-1 cells were treated with iBRD9 TP-472 (5 μM) for 48 h. RNA was isolated using Trizol. RNA quality and quantity were assessed using the Agilent bio-analyzer. Strand-specific RNA-SEQ libraries were prepared using a TruSEQ total RNA-SEQ library protocol (Illumina provided). Library quality and quantity were assessed using the Agilent bio-analyzer and libraries were sequenced using an Illumina NovaSEQ6000 (illumine provided reagents and protocols).
A variety of R packages was used for this analysis. All graphics and data wrangling were handled using the tidyverse suite of packages. All packages used are available from the Comprehensive R Archive Network (CRAN), the Bioconductor project, or Github. The reads were mapped to the human reference transcriptome using STAR, version 2.6.1d (GitHub, Inc., San Francisco, CA, USA). The quality of raw reads, as well as the results of STAR mapping, are generated using fastqc and multiqc. Raw reads were mapped to the human reference transcriptome using Salmon, version 1.4.0. After reading mapping with Salmon, the tximport software package (Bioconductor project, accessed on 27 Oct. 2021) was used to read Salmon outputs into the R environment. Annotation data from Gencode V34 was used to summarize data from transcript-level to gene-level.
For Parsimonious gene correlation network analysis (PGCNA), normalized matrix of DEGs (Adjusted p-Values<0.05 and […]; n=3583) and the top 80% of the most variance genes across samples (n=10,848) were used to network construction. The matrix was used to calculate Spearman rank correlations for all gene pairs using the Python PGCNA2 package. For each gene (row) in a correlation matrix, only the three most correlated edges per gene were retained. The correlation matrices were clustered 100 times using the fast unfolding of communities in a large network's algorithm and the best (judged by modularity score) were used for downstream analysis. Gephi package with the ForceAt-1as2 layout method was used to visualize the network. Enrichment analyses were performed using the Enrichr web server (Ma′ayan lab at Icahn School of Medicine at Mount Sinai, accessed on 10 Jan. 2022) through EnrichR package in R software. Top biological process GO terms with the false discovery rate (FDR)[…] were analyzed using REVIGO to summarize and find a representative subset of the terms. STRING database (accessed on 27 Apr. 2022), which is the online search tool to protein-protein network (PPI) construction, was used to reconstruct each modules network (A combined score≥0.4 of PPI pairs was considered significant), then the Cytoscape software was employed to analyze the obtained networks. In addition, the Venn diagram online tool provided by VIB and Ghent University (accessed on 27 Apr. 2022) was used to investigate the intersection of DEGs and selected modules.
To determine the mechanistic action of TP-472 inhibition on uLMS cells, RNA-sequencing analysis was performed in control and TP-472 treated cells (n=4 each).

SK-UT-1 cells [3] = assay: Proliferation assay (trypan blue exclusion), SK-UT-1; format: cell-based, human; details: 1-25 μM, 48 h, FIG. 4C
Method: as §2, §3, §1

BRD9 = BRD9 (Homo sapiens, UniProt Q9H8M2); details: cited from earlier work
[4] = SK-UT-1 cells, 5 μM, 48 h, n=4 each
[5] = module I, SK-UT-1, TP-472 5 μM 48 h vs control
[6] = module III, SK-UT-1, TP-472 5 μM 48 h vs control
[7] = module VI, SK-UT-1, TP-472 5 μM 48 h vs control
[8] = module VII, SK-UT-1, TP-472 5 μM 48 h vs control

Sequence of BRD9 (Q9H8M2 whole entry): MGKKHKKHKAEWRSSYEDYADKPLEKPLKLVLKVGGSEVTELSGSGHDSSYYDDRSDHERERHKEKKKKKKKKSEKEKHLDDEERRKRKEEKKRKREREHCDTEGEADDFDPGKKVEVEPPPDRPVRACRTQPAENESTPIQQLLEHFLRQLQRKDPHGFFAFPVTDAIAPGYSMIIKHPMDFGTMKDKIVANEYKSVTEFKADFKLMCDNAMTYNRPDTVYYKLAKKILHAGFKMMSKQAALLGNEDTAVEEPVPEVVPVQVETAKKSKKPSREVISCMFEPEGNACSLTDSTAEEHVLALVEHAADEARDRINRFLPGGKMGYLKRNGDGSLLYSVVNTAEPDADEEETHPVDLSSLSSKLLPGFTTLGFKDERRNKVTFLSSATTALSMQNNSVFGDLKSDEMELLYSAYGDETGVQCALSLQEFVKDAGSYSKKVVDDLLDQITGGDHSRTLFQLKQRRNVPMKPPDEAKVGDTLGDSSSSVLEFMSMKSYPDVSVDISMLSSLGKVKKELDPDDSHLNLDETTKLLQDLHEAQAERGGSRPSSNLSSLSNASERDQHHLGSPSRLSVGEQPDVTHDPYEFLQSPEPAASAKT
Sequence of CECR2 BRD (Q9BXF3 434-538 limits assumed): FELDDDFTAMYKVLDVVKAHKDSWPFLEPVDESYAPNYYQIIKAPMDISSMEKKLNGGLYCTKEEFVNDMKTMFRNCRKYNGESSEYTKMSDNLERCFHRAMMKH

SMILES: Cc1sc2c(c1C)C(c1ccc(Cl)cc1)=N[C@@H](CC(=O)OC(C)(C)C)c1nnc(C)n1-2 [JQ1]
- IL-6 and TNF levels (macrophages): reduce
- tumor growth in ovarian cancer (ovarian cancer): suppresses tumor growth

SMILES: CCCS(=O)(=O)c1nc(NC2CC2)cc(-c2ccc3c(ccn3C3CC(C)(C)NC(C)(C)C3)c2)n1 [NVS-CECR2-1]
- cytotoxic activity against human cancer cells (SW48 colon cancer cells): killing SW48 colon cancer cells by inducing apoptosis
- chromatin binding of CECR2 BRD (CECR2 BRD): inhibits

SMILES: O=C1NC(=NCc2cccs2)S/C1=C\c1ccc2ncccc2c1 [RO3306]
- cell apoptosis and cell cycle in endometrial cancer cells (endometrial cancer cells): induced cell apoptosis and caused G2/M phase arrest

SMILES: CC(=O)c1cc(-c2cc(C(=O)NC3CC3)ccc2C)c2ncccn12 [TP-472]
- tumor growth in melanoma (melanoma): blocked tumor growth
- expression of CDKN1A by q-PCR (SK-UT-1 cells [1]; FIG. 7G): significant increase
- expression of BAK1 by q-PCR (SK-UT-1 cells [1]; FIG. 7H): significant increase
- protein levels of BCL-2 (BCL-2): significantly decreased
- effect on proliferation of MES-SA cells (MES-SA cells): dose-dependent inhibitory effect
- mRNA levels of BAK (SK-UT-1 cells [2]; RNA-seq, treated SK-UT-1 cells vs control, FIG. 7B): significantly increased
- CDKN1A expression (SK-UT-1 cells [2]; RNA-seq, treated uLMS cells vs control, FIG. 7A): significantly higher
- expression of AKT1 (SK-UT-1 cells [2]; RNA-seq, treated uLMS cells, FIG. 7C): markedly decreased
- expression of AKT2 (SK-UT-1 cells [2]; RNA-seq, treated uLMS cells, FIG. 7D): significantly decreased
- expression of Gill (SK-UT-1 cells [2]; RNA-seq, uLMS cells, FIG. 7E): significantly decreased
- GLI2 expression (SK-UT-1 cells [2]; RNA-seq, uLMS cells, FIG. 7F): markedly reduced
- differentially expressed genes (DEGs), down (SK-UT-1 cells [2]; [4]): 1741
- differentially expressed genes (DEGs), total (SK-UT-1 cells [2]; [4]): 3583
- differentially expressed genes (DEGs), up (SK-UT-1 cells [2]; [4]): 1842
- FC of hub gene CEBPB (SK-UT-1 cells [2]; [5]): 1.75
- FC of hub gene EGR1 (SK-UT-1 cells [2]; [5]): 1.63
- FC of hub gene FOS (SK-UT-1 cells [2]; [5]): 1.50
- FC of hub gene GATA2 (SK-UT-1 cells [2]; [5]): 2.26
- FC of hub gene GRIN1 (SK-UT-1 cells [2]; [5]): 2.54
- FC of hub gene MYC (SK-UT-1 cells [2]; [5]): 1.56
- FC of hub gene SHH (SK-UT-1 cells [2]; [5]): 4.66
- FC of hub gene SOX9 (SK-UT-1 cells [2]; [5]): 2.02
- FC of hub gene STX1A (SK-UT-1 cells [2]; [5]): 1.78
- FC of hub gene TERT (SK-UT-1 cells [2]; [5]): 1.68
- FC of hub gene CCT2 (SK-UT-1 cells [2]; [6]): 1.61
- FC of hub gene CYCS (SK-UT-1 cells [2]; [6]): 1.86
- FC of hub gene EIF2S1 (SK-UT-1 cells [2]; [6]): 1.52
- FC of hub gene HSPA8 (SK-UT-1 cells [2]; [6]): 1.75
- FC of hub gene IMP3 (SK-UT-1 cells [2]; [6]): 1.62
- FC of hub gene NIP7 (SK-UT-1 cells [2]; [6]): 1.92
- FC of hub gene NOP56 (SK-UT-1 cells [2]; [6]): 1.64
- FC of hub gene NOP58 (SK-UT-1 cells [2]; [6]): 1.74
- FC of hub gene PA2G4 (SK-UT-1 cells [2]; [6]): 1.55
- FC of hub gene RPL26L1 (SK-UT-1 cells [2]; [6]): 1.58
- FC of hub gene BYSL (SK-UT-1 cells [2]; [7]): 1.75
- FC of hub gene CCND1 (SK-UT-1 cells [2]; [7]): 2.21
- FC of hub gene FN1 (SK-UT-1 cells [2]; [7]): 2.40
- FC of hub gene HRAS (SK-UT-1 cells [2]; [7]): 1.60
- FC of hub gene JUN (SK-UT-1 cells [2]; [7]): 3.13
- FC of hub gene KIT (SK-UT-1 cells [2]; [7]): 20.37
- FC of hub gene LEF1 (SK-UT-1 cells [2]; [7]): 6.22
- FC of hub gene MRTO4 (SK-UT-1 cells [2]; [7]): 2.16
- FC of hub gene PDCD11 (SK-UT-1 cells [2]; [7]): 1.69
- FC of hub gene RRP9 (SK-UT-1 cells [2]; [7]): 2.71
- FC of hub gene CDK1 (SK-UT-1 cells [2]; [8]): −1.56
- FC of hub gene CHEK2 (SK-UT-1 cells [2]; [8]): −1.69
- FC of hub gene FGF2 (SK-UT-1 cells [2]; [8]): −1.56
- FC of hub gene HLTF (SK-UT-1 cells [2]; [8]): −1.78
- FC of hub gene MIS18BP1 (SK-UT-1 cells [2]; [8]): −1.53
- FC of hub gene STAG2 (SK-UT-1 cells [2]; [8]): −1.51
- FC of hub gene TIA1 (SK-UT-1 cells [2]; [8]): −1.60
- FC of hub gene TOP2A (SK-UT-1 cells [2]; [8]): −1.52
- FC of hub gene TOP2B (SK-UT-1 cells [2]; [8]): −1.52
- FC of hub gene WDHD1 (SK-UT-1 cells [2]; [8]): −1.52
- effect on proliferation of SK-UT-1 cells (SK-UT-1 cells [3]): dose-dependent inhibitory effect
- potency for BRD9 (BRD9): high potency
